Patent publication US20100041089A1, “IMPROVED METHOD FOR DETECTING CHEMICAL […]” (priority 2006, published 2010)

Test system: yeast genes (expressed mRNA)
Experiment: DNA chip measurement of expressed mRNA of yeast genes after culture with a toxic chemical substance
Assay type: cell-based, Saccharomyces cerevisiae S288C
How it was run: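 Two-hour exposure of growing S. cerevisiae S288C (YPD, 25° C) to a sublethal toxicant preceded RNA isolation. Fluorescent cDNA was hybridized to a whole-genome array; a treated-to-untreated signal ratio of two or more was taken as significant.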

## N#Cc1c(Cl)c(Cl)c(Cl)c(C#N)c1Cl [(9), 2,4,5,6-Tetrachloro-1,3-benzenedicarbonitrile]
Yeast gene YMR316W, cultured two hours with substance
  The level of expressed mRNA in the presence of chemical substance/The level of expressed mRNA in the absence of chemical substance: 2.1
Yeast gene YMR322C, cultured two hours with substance
  The level of expressed mRNA in the presence of chemical substance/The level of expressed mRNA in the absence of chemical substance: 21.3
Yeast gene YNL044W, cultured two hours with substance
  The level of expressed mRNA in the presence of chemical substance/The level of expressed mRNA in the absence of chemical substance: 0.8
Yeast gene YNL074C, cultured two hours with substance
  The level of expressed mRNA in the presence of chemical substance/The level of expressed mRNA in the absence of chemical substance: 1.5
Yeast gene YNL092W, cultured two hours with substance
  The level of expressed mRNA in the presence of chemical substance/The level of expressed mRNA in the absence of chemical substance: 2.3
Yeast gene YNL115C, cultured two hours with substance
  The level of expressed mRNA in the presence of chemical substance/The level of expressed mRNA in the absence of chemical substance: 2.6
Yeast gene YNL117W, cultured two hours with the chemical substance
  The level of expressed mRNA in the presence of chemical substance/The level of expressed mRNA in the absence of chemical substance: 12.8
Yeast gene YNL156C, cultured two hours with substance
  The level of expressed mRNA in the presence of chemical substance/The level of expressed mRNA in the absence of chemical substance: 2.4
Yeast gene YNL190W, cultured two hours with substance
  The level of expressed mRNA in the presence of chemical substance/The level of expressed mRNA in the absence of chemical substance: 1.1
Yeast gene YNL208W, cultured two hours with substance
  The level of expressed mRNA in the presence of chemical substance/The level of expressed mRNA in the absence of chemical substance: 2.3
Yeast gene YNL234W, cultured two hours with substance
  The level of expressed mRNA in the presence of chemical substance/The level of expressed mRNA in the absence of chemical substance: 2.6
Yeast gene YNL281W, cultured two hours with substance
  The level of expressed mRNA in the presence of chemical substance/The level of expressed mRNA in the absence of chemical substance: 2.8
Yeast gene YNL305C, cultured two hours with substance
  The level of expressed mRNA in the presence of chemical substance/The level of expressed mRNA in the absence of chemical substance: 2.9
Yeast gene YNL331C
  The level of expressed mRNA in the presence of chemical substance/The level of expressed mRNA in the absence of chemical substance: 42.6
Yeast gene YNL331C, cultured for two hours with substance
  The level of expressed mRNA in the presence of chemical substance/The level of expressed mRNA in the absence of chemical substance: 42.6
Yeast gene YNR068C, cultured two hours with substance
  The level of expressed mRNA in the presence of chemical substance/The level of expressed mRNA in the absence of chemical substance: 6.7
Yeast gene YOL030W, cultured two hours with the chemical substance
  The level of expressed mRNA in the presence of chemical substance/The level of expressed mRNA in the absence of chemical substance: 1.2
Yeast gene YOL032W, cultured two hours with substance
  The level of expressed mRNA in the presence of chemical substance/The level of expressed mRNA in the absence of chemical substance: 4.5
Yeast gene YOL036W, cultured two hours with substance
  The level of expressed mRNA in the presence of chemical substance/The level of expressed mRNA in the absence of chemical substance: 3.1
Yeast gene YOL047C, cultured two hours with substance
  The level of expressed mRNA in the presence of chemical substance/The level of expressed mRNA in the absence of chemical substance: 0.6
Yeast gene YOL071W, cultured two hours with substance
  The level of expressed mRNA in the presence of chemical substance/The level of expressed mRNA in the absence of chemical substance: 4.4
Yeast gene YOL082W, cultured two hours with substance
  The level of expressed mRNA in the presence of chemical substance/The level of expressed mRNA in the absence of chemical substance: 3.4
Yeast gene YOL083W, cultured two hours with substance
  The level of expressed mRNA in the presence of chemical substance/The level of expressed mRNA in the absence of chemical substance: 2.7
Yeast gene YOL117W, cultured two hours with substance
  The level of expressed mRNA in the presence of chemical substance/The level of expressed mRNA in the absence of chemical substance: 1.3
Yeast gene YOL131W, cultured two hours with substance
  The level of expressed mRNA in the presence of chemical substance/The level of expressed mRNA in the absence of chemical substance: 8.4
Yeast gene YOL150C, cultured two hours with substance
  The level of expressed mRNA in the presence of chemical substance/The level of expressed mRNA in the absence of chemical substance: 10.8
Yeast gene YOL162W, cultured two hours with substance
  The level of expressed mRNA in the presence of chemical substance/The level of expressed mRNA in the absence of chemical substance: 12.0
Yeast gene YOL165C
  The level of expressed mRNA in the presence of chemical substance/The level of expressed mRNA in the absence of chemical substance: 46.9
Yeast gene YOL165C, cultured for two hours with substance
  The level of expressed mRNA in the presence of chemical substance/The level of expressed mRNA in the absence of chemical substance: 46.9
Yeast gene YOR019W, cultured two hours with substance
  The level of expressed mRNA in the presence of chemical substance/The level of expressed mRNA in the absence of chemical substance: 3.5
Yeast gene YOR197W, cultured two hours with substance
  The level of expressed mRNA in the presence of chemical substance/The level of expressed mRNA in the absence of chemical substance: 0.8
Yeast gene YOR215C, cultured two hours with substance
  The level of expressed mRNA in the presence of chemical substance/The level of expressed mRNA in the absence of chemical substance: 2.1
Yeast gene YOR228C, cultured two hours with substance
  The level of expressed mRNA in the presence of chemical substance/The level of expressed mRNA in the absence of chemical substance: 1.4
Yeast gene YOR248W, cultured two hours with substance
  The level of expressed mRNA in the presence of chemical substance/The level of expressed mRNA in the absence of chemical substance: 0.1
Yeast gene YOR382W, cultured two hours with substance
  The level of expressed mRNA in the presence of chemical substance/The level of expressed mRNA in the absence of chemical substance: 1.1
Yeast gene YOR391C, cultured two hours with substance
  The level of expressed mRNA in the presence of chemical substance/The level of expressed mRNA in the absence of chemical substance: 18.8
Yeast gene YPL052W, cultured two hours with substance
  The level of expressed mRNA in the presence of chemical substance/The level of expressed mRNA in the absence of chemical substance: 2.0
Yeast gene YPL087W, cultured two hours with substance
  The level of expressed mRNA in the presence of chemical substance/The level of expressed mRNA in the absence of chemical substance: 1.0
Yeast gene YPL194W, DNA repair protein genes, cultured two hours with substance
  The level of expressed mRNA in the presence of chemical substance/The level of expressed mRNA in the absence of chemical substance: 9.6
Yeast gene YPL196W, cultured two hours with substance
  The level of expressed mRNA in the presence of chemical substance/The level of expressed mRNA in the absence of chemical substance: 10.9
Yeast gene YPL206C, cultured two hours with substance
  The level of expressed mRNA in the presence of chemical substance/The level of expressed mRNA in the absence of chemical substance: 1.7
Yeast gene YPL222W, cultured two hours with substance
  The level of expressed mRNA in the presence of chemical substance/The level of expressed mRNA in the absence of chemical substance: 7.4
Yeast gene YPL223C (stress protein genes)
  The level of expressed mRNA in the presence of chemical substance/The level of expressed mRNA in the absence of chemical substance: 29.4
Yeast gene YPL272C, cultured two hours with the chemical substance
  The level of expressed mRNA in the presence of chemical substance/The level of expressed mRNA in the absence of chemical substance: 1.2
Yeast gene YPL280W, cultured two hours with substance
  The level of expressed mRNA in the presence of chemical substance/The level of expressed mRNA in the absence of chemical substance: 49.8
Yeast gene YPR023C, cultured two hours with substance
  The level of expressed mRNA in the presence of chemical substance/The level of expressed mRNA in the absence of chemical substance: 4.4
Yeast gene YPR079W, cultured two hours with substance
  The level of expressed mRNA in the presence of chemical substance/The level of expressed mRNA in the absence of chemical substance: 1.7
Yeast gene YPR150W, cultured two hours with the chemical substance
  The level of expressed mRNA in the presence of chemical substance/The level of expressed mRNA in the absence of chemical substance: 1.2
Yeast gene YPR151C, cultured two hours with substance
  The level of expressed mRNA in the presence of chemical substance/The level of expressed mRNA in the absence of chemical substance: 3.0
Yeast gene YPR167C
  The level of expressed mRNA in the presence of chemical substance/The level of expressed mRNA in the absence of chemical substance: 76.6
